Measured values: PMC3545969, “Mutagenicity and antimutagenicity of (−)-hinokinin a trypanosomicidal compound measured by Salmonella microsome and comet assays” (BMC Complementary and Alternative Medicine, 2012)
Where two headings read alike, the source gives them in different places. Marks after values point to notes of the source that are not given here.

Key:
[1] = test system: Salmonella typhimurium TA102; test: Ames test, antimutagenicity assay, TA102; type: cell-based
rat peripheral blood = test system: rat peripheral blood; design: method as in PMID 17141387; conditions: cited from earlier work
[2] = test system: Salmonella typhimurium TA97a; conditions: TA 97a
[3] = test system: S. typhimurium strains TA98, TA100, TA102 and TA97a; conditions: HK 9.7 - 78.0 μg/plate, +S9 and −S9
V79 cells = test: Comet assay, genotoxicity in V79 cells; type: cell-based, Chinese hamster; design: Class 0 / Class 1 / Class 2 / Class 3: unit not given here; conditions: 3 h
Description: Chinese hamster lung fibroblasts (V79) were kindly supplied by Professor Cólus (Universidade Estadual de Londrina (UEL), Paraná, Brazil). Cells were maintained as monolayers in plastic culture flasks (25 cm^2) in HAM-F10 (Sigma-Aldrich) plus DMEM (Sigma-Aldrich, 1:1) culture medium supplemented with 10%; fetal bovine serum (Nutricell), antibiotics (0.01 mg mL^−1 streptomycin and 0.005 mg mL^−1 penicillin; Sigma-Aldrich) and 2.38 mg mL^−1 Hepes (Sigma-Aldrich), at 37°C in a BOD-type chamber. Under these conditions, the average cell cycle time was 12 h.
HK was first dissolved in a mixture of methanol (100 μL) and distilled water (900 μL). The final concentration of methanol in the culture was 0.1%;. The choice of concentrations was based on the results of previous experiments with HK [12]. In the experiments, 3 × 10^5 cells (V79) were seeded into tissue-culture flasks, incubated for two cycles (24 h) in complete HAM-F10/DMEM medium, washed with phosphate buffer saline (PBS), and then subjected to one of the following treatments, in serum-free medium, for 3 h. To assess genotoxicity, the cells were treated with each concentration of HK alone, while for antigenotoxicity, they were treated with the mutagen DXR (0.3 μM) in combination with each HK concentration. Positive (DXR) and negative controls were also included in the test. At the end of the treatment, the cells were washed with ice-cold PBS and trypsinized with 200 μL trypsin. After 3 min, the cells were gently resuspended in complete medium and 20 μL of the cell suspension was immediately used for the test.
The procedures described by Singh et al. were adopted, with minor modifications, as described in detail by Speit and Hartmann and reviewed by Burlinson et al.. Briefly, a microscope slide was covered with a base layer of 1.5%; normal-melting agarose (Invitrogen) and 20 μL of the test cells suspended in 120 μL 0.5%; low-melting agarose (Invitrogen) at 37°C was then spread over the base layer. A coverslip was added and the agarose allowed to solidify at 4°C for 15 min. Next, the coverslip was gently removed and the slides were immersed in freshly prepared lysing solution consisting of 89 mL stock solution (2.5 M NaCl, 100 mM EDTA, 10 mM Tris, pH 10.0, and 1%; sodium lauryl sarcosine), 10 mL DMSO and 1 mL Triton X-100, pH 10.0, at 4°C, for at least 20 h, protected from light. At the end of this period, the slides were transferred to an electrophoresis chamber containing a high pH (>13.0) buffer (300 mM NaOH, 1 mM EDTA) and incubated at 4°C for 20 min to allow the DNA to unwind. A current of 25 V (1.0 V cm^−1, 300 mA) was applied for 20 min. The slides were then submerged in a neutralization buffer (0.4 M Tris - HCl, pH 7.5) for 15 min, dried at room temperature and fixed in 100%; ethanol for 10 min.
The slides were stained with 100 μL ethidium bromide (20 μg ml^−1) and covered with a coverslip. All the slides in the experiment were coded before analysis. The stained nucleoids were immediately evaluated at 1000x magnification under a Nikon fluorescence microscope fitted with a 515–560 nm excitation filter and a 590 nm barrier filter.
For each treatment, the extent and distribution of DNA damage indicated by the comet assay were evaluated by examining 100 randomly selected and non-overlapping cells on the slides (i.e. 300 nucleoids per treatment). For each slide, the cells were visually scored and allocated to one of four classes (0, 1, 2 and 3), according to tail size, as follows: class 0, undamaged, no tail; class 1, a short tail whose length was smaller than the diameter of the comet head (nucleus); class 2, tail length between 1 and 2 times the diameter of the head; and class 3, maximally damaged: a long tail measuring more than twice the diameter of the head. The few comets containing no head and those with almost all DNA in the tail, or with a very wide tail, were excluded from the analysis since they may arise from dead cells. […]

[4] = TA 102, + S9, HK 19.5 μg/plate + 2-AF 10.0 μg/plate
[5] = TA 102, + S9, HK 39.0 μg/plate + 2-AF 10.0 μg/plate
[6] = TA 102, + S9, HK 58.5 μg/plate + 2-AF 10.0 μg/plate
[7] = TA 102, + S9, HK 78.0 μg/plate + 2-AF 10.0 μg/plate
[8] = TA 102, - S9, HK 58.5 μg/plate + MMC 0.5 μg/plate
[9] = TA 102, - S9, HK 78.0 μg/plate + MMC 0.5 μg/plate

Structure (SMILES): O=C1OC[C@H](Cc2ccc3c(c2)OCO3)[C@H]1Cc1ccc2c(c1)OCO2 [HK, (−)-hinokinin]
- Number of revertants(M ± SD)/ plate [1]: 852 + 21 revertants/plate
- % inhibition [1, 4]: 42*** %
- Number of revertants(M ± SD)/ plate [1, 4]: 855 + 22 revertants/plate
- % inhibition [1, 5]: 46*** %
- Number of revertants(M ± SD)/ plate [1, 5]: 820 + 19 revertants/plate
- % inhibition [1, 6]: 52*** %
- Number of revertants(M ± SD)/ plate [1, 6]: 754 + 9 revertants/plate
- % inhibition [1, 7]: 52*** %
- Number of revertants(M ± SD)/ plate [1, 7]: 757 + 29 revertants/plate
- % inhibition ([1]; TA 102, + S9, HK […] + 2-AF 10.0 μg/plate): 42*** %
- decrease in the mutagenicity of 2-AF ([1]; TA102, +S9, dose not given): 52%
- Number of revertants(M ± SD)/ plate ([1]; TA 102, - S9, HK 19.5 μg/plate + MMC 0.5 μg/plate): 1201 + 23 revertants/plate
- Number of revertants(M ± SD)/ plate ([1]; TA 102, - S9, HK 39.0 μg/plate + MMC 0.5 μg/plate): 1317 + 14 revertants/plate
- % inhibition [1, 8]: 18* %
- Number of revertants(M ± SD)/ plate [1, 8]: 1017 + 56 revertants/plate
- % inhibition [1, 9]: 22* %
- Number of revertants(M ± SD)/ plate [1, 9]: 979 + 51 revertants/plate
- Number of revertants(M ± SD)/ plate ([1]; TA 102, - S9, HK […] + MMC 0.5 μg/plate): 1236 + 17 revertants/plate
- effect on mutagenesis induced by MMC ([1]; TA102, absence of metabolic activation): did not reduce mutagenesis
- effect on chromosome damage induced by DXR, micronucleus test (rat peripheral blood): effective in reducing the chromosome damage induced by DXR
- genotoxic effect, micronucleus test (rat peripheral blood): no genotoxic effect
- MI (mutagenicity index) ([2]; + S9, HK 19.5 μg/plate): 1.1
- Number of revertants(M ± SD)/ plate ([2]; + S9, HK 19.5 μg/plate): 187 ± 3 revertants/plate
- MI (mutagenicity index) ([2]; + S9, HK 39.0 μg/plate): 1.0
- Number of revertants(M ± SD)/ plate ([2]; + S9, HK 39.0 μg/plate): 166 ± 5 revertants/plate
- MI (mutagenicity index) ([2]; + S9, HK 58.5 μg/plate): 1.0
- Number of revertants(M ± SD)/ plate ([2]; + S9, HK 58.5 μg/plate): 172 ± 2 revertants/plate
- MI (mutagenicity index) ([2]; + S9, HK 78.0 μg/plate): 0.9
- Number of revertants(M ± SD)/ plate ([2]; + S9, HK 78.0 μg/plate): 146 ± 4 revertants/plate
- MI (mutagenicity index) ([2]; - S9, HK 39.0 μg/plate): 0.9
- Number of revertants(M ± SD)/ plate ([2]; - S9, HK 39.0 μg/plate): 146 ± 5 revertants/plate
- MI (mutagenicity index) ([2]; - S9, HK 58.5 μg/plate): 1.1
- Number of revertants(M ± SD)/ plate ([2]; - S9, HK 58.5 μg/plate): 175 ± 4 revertants/plate
- MI (mutagenicity index) ([2]; - S9, HK 78.0 μg/plate): 1.0
- Number of revertants(M ± SD)/ plate ([2]; - S9, HK 78.0 μg/plate): 163 ± 8 revertants/plate
- mutagenic activity (number of revertant colonies relative to the negative control) [3]: did not induce any increase in the number of revertant colonies
- Class 0 (V79 cells; HK 0.5 μM alone): 81.6 ± 4.9
- Class 1 (V79 cells; HK 0.5 μM alone): 12.3± 3.5
- Class 2 (V79 cells; HK 0.5 μM alone): 4.3 ± 3.7
- Score (V79 cells; HK 0.5 μM alone): 26.0 ± 13.2
- Class 0 (V79 cells; HK 1.0 μM alone): 87.0 ± 5.1
- Class 1 (V79 cells; HK 1.0 μM alone): 11.0 ± 5.2
- Class 2 (V79 cells; HK 1.0 μM alone): 1.3 ± 0.5
- Class 3 (V79 cells; HK 1.0 μM alone): 0
- Score (V79 cells; HK 1.0 μM alone): 13.0 ± 5.0
- Class 0 (V79 cells; HK 2.0 μM alone): 83.0 ± 3.7
- Class 1 (V79 cells; HK 2.0 μM alone): 14.0 ± 2.5
- Class 2 (V79 cells; HK 2.0 μM alone): 2.0 ± 2.0
- Class 3 (V79 cells; HK 2.0 μM alone): 0
- Score (V79 cells; HK 2.0 μM alone): 18.0 ± 5.0
- Class 0 (V79 cells; HK 32 μM alone): 89.0 ± 2.0
- Class 1 (V79 cells; HK 32 μM alone): 10.0 ± 2.0
- Class 2 (V79 cells; HK 32 μM alone): 0.3 ± 0.5
- Class 3 (V79 cells; HK 32 μM alone): 0.6 ± 1.1
- Score (V79 cells; HK 32 μM alone): 9.6 ± 2.3
- Class 0 (V79 cells; HK 64 μM alone): 88.0 ± 3.6
- Class 1 (V79 cells; HK 64 μM alone): 11.0 ± 4.0
- Class 2 (V79 cells; HK 64 μM alone): 0.6 ± 1.0
- Class 3 (V79 cells; HK 64 μM alone): 1.0 ± 1.0
- Score (V79 cells; HK 64 μM alone): 13.0 ± 3.4
